In patent publication US11413278B2, “Compounds and methods for promoting stress resistance” (priority 2015, dated 2022):
Like-named read-outs stand apart in the source and are kept apart here.

How the values were obtained:
FOXO3 = FOXO3 siRNA knockdown: dependency for H2O2-resistance; assay type: cell-based, human
WI-38 cells = test: Long-term effects on cell viability (5 days, ATP; morphology, PI imaging); assay type: cell-based; details: 10 μM; for Luminescence signal for ATP measurement, day-1 Average / Luminescence signal for ATP measurement, day-2 Average / Luminescence signal for ATP measurement, day-3 Average / Luminescence signal for ATP measurement, day-4 Average / Luminescence signal for ATP measurement, day-5 Average: n = 6; for viability at 10 µM: Homo sapiens, WI-38, 120 h, DMSO ctrl = 100.0%, read-out: ATP luminescence by day-5 normalized; for Luminescence signal for ATP measurement, day-5 Average / viability at 10 µM: day-5; for O = Potential toxicity / Q = Potential toxicity: human, 5 days;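 as to Luminescence signal for ATP measurement, day-2 Average: compounds at 10 µM with ATP read daily over 5 days of treatment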;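 as to Luminescence signal for ATP measurement, day-3 Average: compounds at 10 µM with ATP read daily over 5 days of treatment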;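 as to Luminescence signal for ATP measurement, day-4 Average: compounds at 10 µM with ATP read daily over 5 days of treatment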;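 as to Luminescence signal for ATP measurement, day-5 Average: compounds at 10 µM with ATP read daily over 5 days of treatment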
NRF2 = test: qPCR analysis of NRF2-regulated genes; assay type: cell-based, human; details: for fold induction at 10 µM: Homo sapiens; for Potential NRF2 Activation (>=2 target genes induced, by >=1.5-fold): Assay 13(p)
Method in brief: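 Expression of HMOX1, NQO1, GCLC and GSTM1 measured by qPCR relative to B2M, PPIA and GAPDH. Cells were WI-38 fibroblasts exposed 24 hrs to 10 μM compound, with RNA and cDNA prepared via Cells-to-Ct. Where stated, cells were first transfected 36 hrs with FOXO3 or NRF2 siRNA at 10 nM.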

[1] = Batch 2, day-0 luminescence = 229312 ± 17487
[2] = WI-38 cells, 10 μM, 24 hrs, n=4, qPCR normalized by B2M, read-out: GCLC Normalized fold change
[3] = WI-38 cells, 10 μM, 24 hrs, n=4, qPCR normalized by B2M, read-out: GSTM1 Normalized fold change
[4] = WI-38 cells, 10 μM, 24 hrs, n=4, qPCR normalized by B2M, read-out: HMOX1 Normalized fold change
[5] = WI-38 cells, 10 μM, 24 hrs, n=4, qPCR normalized by B2M, read-out: NQO1 Normalized fold change
[6] = Batch 1, day-0 luminescence = 320956 ± 24708
[7] = 24 h, Assay 12(o), at 10 uM, qPCR, read-out: Induction of NRF2-regulated genes: HMOX1 normalized fold-change
[8] = 24 h, Assay 12(o), at 10 uM, qPCR, read-out: Induction of NRF2-regulated genes: NQO1 normalized fold-change
[9] = rounded fold change, WI-38 cells, 10 μM, 24 hrs (RP11 for Gr-1D, RP29 for Gr-4D), read-out: Summary of effects on NRF2-regulated genes: HMOX1
[10] = rounded fold change, WI-38 cells, 10 μM, 24 hrs (RP29 for Gr-4D), read-out: Summary of effects on NRF2-regulated genes: NQO1
[11] = 10 μM, 24 hrs, WI-38, read-out: Expression of at least two NRF2 target genes
[12] = 10 μM, 24 hrs, WI-38 cells, qPCR, normalized to B2M, n = 4, read-out: HMOX1 expression, normalized fold change (NRF2-regulated gene)
[13] = 10 μM, 24 hrs, WI-38 cells, qPCR, normalized to B2M, n = 4, read-out: NQO1 expression, normalized fold change (NRF2-regulated gene)
[14] = 24 h, Assay 12(o), at 10 uM, qPCR, read-out: Induction of NRF2-regulated genes: GCLC normalized fold-change
[15] = rounded fold change, WI-38 cells, 10 μM, 24 hrs, read-out: Summary of effects on NRF2-regulated genes: GCLC
[16] = 10 μM, 24 hrs, WI-38 cells, qPCR, normalized to B2M, n = 4, read-out: GCLC expression, normalized fold change (NRF2-regulated gene)

For `Cc1ccc(S(=O)(=O)Nc2cccc3cccnc23)cc1` [Gr-3B], which “I = FOXO3-dependency for H2O2-resistance” value (FOXO3; score) is on record?
The value was 0.

What about the “I = FOXO3-dependency for H2O2-resistance” value (FOXO3; summary score) of the same compound?
The value was 0.

And the “Luminescence signal for ATP measurement, day-1 Average” value (WI-38 cells; [1])?
The value was 184710.

What about the “Luminescence signal for ATP measurement, day-2 Average” value (WI-38 cells; [1]) of the same compound?
Its value is 110226.

What about the “Luminescence signal for ATP measurement, day-3 Average” value (WI-38 cells; [1]) of the same compound?
The value was 109008.

And the “Luminescence signal for ATP measurement, day-4 Average” value (WI-38 cells; [1])?
The value was 52193.

And the “Luminescence signal for ATP measurement, day-5 Average” value (WI-38 cells; [1])?
The value was 63138.

What about the viability at 10 µM (WI-38 cells; Batch 2) of the same compound?
Its viability at 10 µM is 11.4%.

What about the “O = Potential toxicity” value (WI-38 cells) of the same compound?
The value was 0.

And the “Q = Potential toxicity” value (WI-38 cells)?
Its value is 1.

What about the “F = Potential NRF2 Activation” value (NRF2; 2-point score) of the same compound?
The value was 0.

And the fold induction at 10 µM (NRF2; [2])?
The fold induction at 10 µM was 1.1.

And the fold induction at 10 µM (NRF2; [3])?
The fold induction at 10 µM was 1.1.

And the fold induction at 10 µM (NRF2; [4])?
The fold induction at 10 µM was 1.04.

What about the fold induction at 10 µM (NRF2; [5]) of the same compound?
The fold induction at 10 µM was 1.07.

What about the “F = Potential NRF2 Activation” value (NRF2; summary score) of the same compound?
The value was 0.

What does the source list for `COc1ccc(C(=O)/C=C/c2ccc(F)cc2)c(OC)c1` [Gr-4A]?
I = FOXO3-dependency for H2O2-resistance (FOXO3; score): 0; I = FOXO3-dependency for H2O2-resistance (FOXO3; summary score): 0; Luminescence signal for ATP measurement, day-1 Average (WI-38 cells; [6]): 501436; Luminescence signal for ATP measurement, day-2 Average (WI-38 cells; [6]): 605711; Luminescence signal for ATP measurement, day-3 Average (WI-38 cells; [6]): 772420; Luminescence signal for ATP measurement, day-4 Average (WI-38 cells; [6]): 995321; Luminescence signal for ATP measurement, day-5 Average (WI-38 cells; [6]): 1019996; viability at 10 µM (WI-38 cells; Batch 1): 99.3%; O = Potential toxicity (WI-38 cells): 0; Q = Potential toxicity (WI-38 cells): 0; F = Potential NRF2 Activation (NRF2; 2-point score): 2; Potential NRF2 Activation (>=2 target genes induced, by >=1.5-fold) (NRF2): YES; fold induction at 10 µM (NRF2; 24 h, Assay 12(o), at 10 uM, qPCR, read-out: Induction of NRF2-regulated genes: GSTM1 normalized fold-change): 1.24; fold induction at 10 µM (NRF2; [7]): 5.24; fold induction at 10 µM (NRF2; [8]): 2.73; fold induction at 10 µM (NRF2; [9]): 5.24; fold induction at 10 µM (NRF2; rounded fold change, WI-38 cells, 10 μM, 24 hrs (RP29 for Gr-4D), read-out: Summary of effects on NRF2-regulated genes: GSTM1): 1.24; fold induction at 10 µM (NRF2; [10]): 2.73; fold induction at 10 µM (NRF2; [11]): > 1.5; fold induction at 10 µM (NRF2; 10 μM, 24 hrs, WI-38 cells, qPCR, normalized to B2M, n = 4, read-out: GSTM1 expression, normalized fold change (NRF2-regulated gene)): 1.24; fold induction at 10 µM (NRF2; [12]): 5.24; fold induction at 10 µM (NRF2; [13]): 2.73; fold induction at 10 µM (NRF2; [2]): 1.18; fold induction at 10 µM (NRF2; [3]): 1.24; fold induction at 10 µM (NRF2; [4]): 5.24; fold induction at 10 µM (NRF2; [5]): 2.73; F = Potential NRF2 Activation (NRF2; summary score): 2

What does the source list for `COC(=O)CCc1sc2c(c1[N+](=O)[O-])NC(=O)CCC2` [O20]?
FOXO3-dependency for H2O2-resistance, at 10 uM - with H2O2, 2nd experiment (FOXO3; 10 uM, experiment 2 (2nd), with H2O2): 2nd, YES.; FOXO3-dependency for H2O2-resistance, at 10 uM (experiment 3) - with & without H2O2 (FOXO3; 10 uM, experiment 3, with & without H2O2): YES; FOXO3-dependency for H2O2-resistance (experiment 3) (FOXO3; 10 uM, with & without H2O2, FOXO3 knockdown in WI-38 cells, YES = resistance reduced by at least 50%, partial = 25% to 50%): YES; FOXO3-dependency for H2O2-resistance, 2nd experiment (FOXO3; 10 uM, with H2O2, FOXO3 knockdown in WI-38 cells, YES = resistance reduced by at least 50%, partial = 25% to 50%): YES.; Assay 16: FOXO3-dependency for H2O2-resistance (FOXO3; 10 uM, YES/NO): YES; Requirement of FOXO3 to promote H2O2-resistance (FOXO3; FOXO3 siRNA, at least 2 of 3 independent experiments): required FOXO3; I = FOXO3-dependency for H2O2-resistance (FOXO3; score): 1; I = FOXO3-dependency for H2O2-resistance (FOXO3; summary score): 1; Luminescence signal for ATP measurement, day-1 Average (WI-38 cells; [6]): 544305; Luminescence signal for ATP measurement, day-2 Average (WI-38 cells; [6]): 770055; Luminescence signal for ATP measurement, day-3 Average (WI-38 cells; [6]): 888893; Luminescence signal for ATP measurement, day-4 Average (WI-38 cells; [6]): 997113; Luminescence signal for ATP measurement, day-5 Average (WI-38 cells; [6]): 926888; viability at 10 µM (WI-38 cells; Batch 1): 90.3%; O = Potential toxicity (WI-38 cells): 1; Q = Potential toxicity (WI-38 cells): 0; F = Potential NRF2 Activation (NRF2; 2-point score): 2; Potential NRF2 Activation (>=2 target genes induced, by >=1.5-fold) (NRF2): YES; fold induction at 10 µM (NRF2; [14]): 1.76; fold induction at 10 µM (NRF2; [8]): 2.49; fold induction at 10 µM (NRF2; [10]): 2.49; fold induction at 10 µM (NRF2; [15]): 1.76; fold induction at 10 µM (NRF2; [11]): > 1.5; fold induction at 10 µM (NRF2; [16]): 1.76; fold induction at 10 µM (NRF2; [13]): 2.49; fold induction at 10 µM (NRF2; [2]): 1.76; fold induction at 10 µM (NRF2; [3]): 1.36; fold induction at 10 µM (NRF2; [4]): 0.937; fold induction at 10 µM (NRF2; [5]): 2.49; F = Potential NRF2 Activation (NRF2; summary score): 2

What does the source list for `O=C(/C=C/c1cn(-c2ccccc2)nc1-c1cccnc1)c1ccccc1` [Gr-6B]?
I = FOXO3-dependency for H2O2-resistance (FOXO3; score): 0; I = FOXO3-dependency for H2O2-resistance (FOXO3; summary score): 0; Luminescence signal for ATP measurement, day-1 Average (WI-38 cells; [6]): 467756; Luminescence signal for ATP measurement, day-2 Average (WI-38 cells; [6]): 641901; Luminescence signal for ATP measurement, day-3 Average (WI-38 cells; [6]): 736245; Luminescence signal for ATP measurement, day-4 Average (WI-38 cells; [6]): 969598; Luminescence signal for ATP measurement, day-5 Average (WI-38 cells; [6]): 953988; viability at 10 µM (WI-38 cells; Batch 1): 92.9%; O = Potential toxicity (WI-38 cells): 0; Q = Potential toxicity (WI-38 cells): 0; F = Potential NRF2 Activation (NRF2; 2-point score): 2; Potential NRF2 Activation (>=2 target genes induced, by >=1.5-fold) (NRF2): YES; fold induction at 10 µM (NRF2; [7]): 1.88; fold induction at 10 µM (NRF2; [8]): 1.52; fold induction at 10 µM (NRF2; [9]): 1.88; fold induction at 10 µM (NRF2; [10]): 1.52; fold induction at 10 µM (NRF2; [11]): > 1.5; fold induction at 10 µM (NRF2; [12]): 1.88; fold induction at 10 µM (NRF2; [13]): 1.52; fold induction at 10 µM (NRF2; [2]): 0.797; fold induction at 10 µM (NRF2; [3]): 1.22; fold induction at 10 µM (NRF2; [4]): 1.88; fold induction at 10 µM (NRF2; [5]): 1.52; F = Potential NRF2 Activation (NRF2; summary score): 2

Which results are given for `CCCC(=O)Nc1ccc(-c2cn3cccc(C)c3n2)cc1` [O12]?
I = FOXO3-dependency for H2O2-resistance (FOXO3; score): 0; I = FOXO3-dependency for H2O2-resistance (FOXO3; summary score): 0; Luminescence signal for ATP measurement, day-1 Average (WI-38 cells; [6]): 527095; Luminescence signal for ATP measurement, day-2 Average (WI-38 cells; [6]): 702483; Luminescence signal for ATP measurement, day-3 Average (WI-38 cells; [6]): 876448; Luminescence signal for ATP measurement, day-4 Average (WI-38 cells; [6]): 1128385; Luminescence signal for ATP measurement, day-5 Average (WI-38 cells; [6]): 1117938; viability at 10 µM (WI-38 cells; Batch 1): 109%; O = Potential toxicity (WI-38 cells): 0; Q = Potential toxicity (WI-38 cells): 0; F = Potential NRF2 Activation (NRF2; 2-point score): 0; fold induction at 10 µM (NRF2; [14]): 0.54; fold induction at 10 µM (NRF2; [7]): 0.76; fold induction at 10 µM (NRF2; [8]): 0.66; fold induction at 10 µM (NRF2; [9]): 0.82; fold induction at 10 µM (NRF2; [10]): 0.69; fold induction at 10 µM (NRF2; [15]): 0.53; fold induction at 10 µM (NRF2; [16]): 0.53; fold induction at 10 µM (NRF2; [12]): 0.82; fold induction at 10 µM (NRF2; [13]): 0.69; fold induction at 10 µM (NRF2; [2]): 0.531; fold induction at 10 µM (NRF2; [3]): 1.21; fold induction at 10 µM (NRF2; [4]): 0.821; fold induction at 10 µM (NRF2; [5]): 0.692; F = Potential NRF2 Activation (NRF2; summary score): 0
